In patent publication US12110294B2, “CD73 compounds” (Gilead Sciences, Inc., priority 2020, dated 2024):

Target: T1, CD73 activity in MDA-MB-231-GFP cells (Homo sapiens, UniProt P21589)
T1 construct: endogenous in cells; host or cells: MDA-MB-231-GFP cells
T1 sequence (P21589 27-549): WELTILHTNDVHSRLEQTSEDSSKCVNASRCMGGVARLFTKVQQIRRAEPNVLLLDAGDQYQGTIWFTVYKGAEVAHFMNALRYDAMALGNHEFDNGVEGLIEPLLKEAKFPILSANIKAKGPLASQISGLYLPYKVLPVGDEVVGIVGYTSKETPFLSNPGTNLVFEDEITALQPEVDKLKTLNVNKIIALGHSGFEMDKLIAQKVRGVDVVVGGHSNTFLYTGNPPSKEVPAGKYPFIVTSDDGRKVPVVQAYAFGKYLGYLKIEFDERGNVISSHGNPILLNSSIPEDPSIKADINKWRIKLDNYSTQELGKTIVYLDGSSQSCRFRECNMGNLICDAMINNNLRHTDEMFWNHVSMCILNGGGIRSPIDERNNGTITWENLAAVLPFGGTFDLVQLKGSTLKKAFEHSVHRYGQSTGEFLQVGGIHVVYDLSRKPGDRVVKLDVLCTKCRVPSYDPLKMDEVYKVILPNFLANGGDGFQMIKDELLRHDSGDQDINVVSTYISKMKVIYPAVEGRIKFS
Assay: MDA-MB-231 Cell Based CD73 Activity Assay (DMEM)
Conditions: 3000 cells per well, DMEM medium with 10% human plasma, overnight compound treatment, AMP 200 uM

Compound | EC50 [nM]
O=c1[nH]cc(-c2cc([C@H]3C[C@@H]3c3ccc(C(F)(F)F)cc3)c3ncc(F)n3n2)c(=O)[nH]1 (racemic) [Example 183, 5-(3-fluoro-8-((1S,2S)-2-(4-(trifluoromethyl)phenyl)cyclopropyl)imidazo[1,2-b]pyridazin-6-yl)pyrimidine-2,4(1H,3H)-dione] | 23.9
O=c1[nH]cc(-c2cc([C@H]3C[C@@H]3c3ccc(Cl)cc3)c3ncc(F)n3n2)c(=O)[nH]1 (racemic) [Example 182, 5-(8-((2S,2S)-2-(4-chlorophenyl)cyclopropyl)-3-fluoroimidazo[1,2-b]pyridazin-6-yl)pyrimidine-2,4(1H,3H)-dione] | 10.4
O=C(c1cccc([C@H]2C[C@@H]2c2cc(-c3c[nH]c(=O)[nH]c3=O)nn3ccnc23)c1)N1C[C@@H](F)[C@@H](F)C1 (racemic) [Example 302, 5-(8-((2S,2S)-2-(3-((3S,4R)-3,4-difluoropyrrolidine-1-carbonyl)phenyl)cyclopropyl)imidazo[1,2-b]pyridazin-6-yl)pyrimidine-2,4(1H,3H)-dione] | 6.99
O=C(c1ccc([C@H]2C[C@@H]2c2cc(-c3c[nH]c(=O)[nH]c3=O)nn3ccnc23)cc1)N1C[C@@H](F)[C@@H](F)C1 (racemic) [Example 301, 5-(8-((2S,2S)-2-(4-((3S,4R)-3,4-difluoropyrrolidine-1-carbonyl)phenyl)cyclopropyl)imidazo[1,2-b]pyridazin-6-yl)pyrimidine-2,4(1H,3H)-dione] | 19.2
O=c1[nH]cc(-c2cc([C@H]3C[C@@H]3c3cnc4ccccc4c3)c3nccn3n2)c(=O)[nH]1 (racemic) [Example 163, 5-(8-((1S,2S)-2-(quinolin-3-yl)cyclopropyl)imidazo[1,2-b]pyridazin-6-yl)pyrimidine-2,4(1H,3H)-dione] | 10.6
O=c1[nH]cc(-c2cc([C@H]3C[C@@H]3c3ccc4c(F)nn(CC(F)(F)F)c4c3)c3ncc(Cl)n3n2)c(=O)[nH]1 (racemic) [Example 213, 5-[3-chloro-8-[(1S,2S)-2-[3-fluoro-1-(2,2,2-trifluoroethyl)indazol-6-yl]cyclopropyl]imidazo[1,2-b]pyridazin-6-yl]-1H-pyrimidine-2,4-dione] | 0.45
N#Cc1ccc([C@H]2C[C@@H]2c2cc(-c3c[nH]c(=O)[nH]c3=O)nn3ccnc23)c(F)c1 (racemic) [Example 407, 4-((2S,2S)-2-(6-(2,4-dioxo-1,2,3,4-tetrahydropyrimidin-5-yl)imidazo[1,2-b]pyridazin-8-yl)cyclopropyl)-3-fluorobenzonitrile] | 14.7
O=c1[nH]cc(-c2cc([C@H]3C[C@@H]3c3cc4c(cn3)cnn4CC(F)(F)F)c3ncc(Cl)n3n2)c(=O)[nH]1 (racemic) [Example 471, 5-(3-chloro-8-((2S,2S)-2-(1-(2,2,2-trifluoroethyl)-1H-pyrazolo[4,3-c]pyridin-6-yl)cyclopropyl)imidazo[1,2-b]pyridazin-6-yl)pyrimidine-2,4(1H,3H)-dione] | 0.24
CNC(=O)c1ccc([C@H]2C[C@@H]2c2cc(-c3c[nH]c(=O)[nH]c3=O)nn3c(F)cnc23)cc1 (racemic) [Example 312, 4-((2S,2S)-2-(6-(2,4-dioxo-1,2,3,4-tetrahydropyrimidin-5-yl)-3-fluoroimidazo[1,2-b]pyridazin-8-yl)cyclopropyl)-N-methylbenzamide] | 4.17
O=c1[nH]cc(-c2cc([C@H]3C[C@@H]3c3ccc4c(c3)OC(F)(F)O4)c3ncc(F)n3n2)c(=O)[nH]1 (racemic) [Example 278, 5-(8-((2S,2S)-2-(2,2-difluorobenzo[d][1,3]dioxol-5-yl)cyclopropyl)-3-fluoroimidazo[1,2-b]pyridazin-6-yl)pyrimidine-2,4(1H,3H)-dione] | 38.9
O=C(c1cccc([C@H]2C[C@@H]2c2cc(-c3c[nH]c(=O)[nH]c3=O)nn3ccnc23)c1)N1CCC1 (racemic) [Example 294, 5-(8-((2S,2S)-2-(3-(azetidine-1-carbonyl)phenyl)cyclopropyl)imidazo[1,2-b]pyridazin-6-yl)pyrimidine-2,4(1H,3H)-dione] | 1.32
O=c1[nH]cc(-c2cc([C@H]3C[C@@H]3c3cccnc3)c3ncc(F)n3n2)c(=O)[nH]1 (racemic) [Example 180, 5-(3-fluoro-8-((1S,2S)-2-(pyridin-3-yl)cyclopropyl)imidazo[1,2-b]pyridazin-6-yl)pyrimidine-2,4(1H,3H)-dione] | 4.67
O=c1[nH]cc(-c2cc([C@H]3C[C@@H]3c3ccc(F)c(F)c3F)c3nccn3n2)c(=O)[nH]1 (racemic) [Example 464, 5-(8-((2S,2S)-2-(2,3,4-trifluorophenyl)cyclopropyl)imidazo[1,2-b]pyridazin-6-yl)pyrimidine-2,4(1H,3H)-dione] | 16.2
COC(=O)c1ccc([C@H]2C[C@@H]2c2cc(-c3c[nH]c(=O)[nH]c3=O)nn3ccnc23)cc1 (racemic) [Example 281, methyl 4-((2S,2S)-2-(6-(2,4-dioxo-1,2,3,4-tetrahydropyrimidin-5-yl)imidazo[1,2-b]pyridazin-8-yl)cyclopropyl)benzoate] | 8.23
O=C1N(CC(F)(F)F)c2cc([C@H]3C[C@@H]3c3cc(-c4c[nH]c(=O)[nH]c4=O)nn4ccnc34)c(F)cc2C12CC2 (racemic) [Example 748, 5-(8-((2S,2S)-2-(5′-fluoro-2′-oxo-1′-(2,2,2-trifluoroethyl)spiro[cyclopropane-1,3′-indolin]-6′-yl)cyclopropyl)imidazo[1,2-b]pyridazin-6-yl)pyrimidine-2,4(1H,3H)-dione] | 1.76
O=c1[nH]cc(-c2cc([C@H]3C[C@@H]3c3cncc(F)c3)c3nccn3n2)c(=O)[nH]1 (racemic) [Example 164, 5-(8-((1S,2S)-2-(5-fluoropyridin-3-yl)cyclopropyl)imidazo[1,2-b]pyridazin-6-yl)pyrimidine-2,4(1H,3H)-dione] | 14
O=c1[nH]cc(-c2cc([C@H]3C[C@@H]3c3ccc4ncsc4c3)c3nccn3n2)c(=O)[nH]1 (racemic) [Example 276, 5-(8-((1S,2S)-2-(benzo[d]thiazol-6-yl)cyclopropyl)imidazo[1,2-b]pyridazin-6-yl)pyrimidine-2,4(1H,3H)-dione] | 2.78
O=c1[nH]cc(-c2cc([C@H]3C[C@@H]3c3ncc(C(F)(F)F)s3)c3nccn3n2)c(=O)[nH]1 (racemic) [Example 364, 5-(8-((1S,2S)-2-(5-(trifluoromethyl)thiazol-2-yl)cyclopropyl)imidazo[1,2-b]pyridazin-6-yl)pyrimidine-2,4(1H,3H)-dione] | 34
O=c1[nH]cc(-c2cc([C@H]3C[C@@H]3c3ccc(OCC(F)(F)F)cn3)c3nccn3n2)c(=O)[nH]1 (racemic) [Example 363, 5-(8-((1S,2S)-2-(5-(2,2,2-trifluoroethoxy)pyridin-2-yl)cyclopropyl)imidazo[1,2-b]pyridazin-6-yl)pyrimidine-2,4(1H,3H)-dione] | 5.5
O=c1[nH]cc(-c2cc([C@H]3C[C@@H]3c3ccc4cccnc4c3)c3nccn3n2)c(=O)[nH]1 (racemic) [Example 154, 5-(8-((1S,2S)-2-(quinolin-7-yl)cyclopropyl)imidazo[1,2-b]pyridazin-6-yl)pyrimidine-2,4(1H,3H)-dione] | 5.75
O=C(c1cccc([C@H]2C[C@@H]2c2cc(-c3c[nH]c(=O)[nH]c3=O)nn3ccnc23)c1)N1CC(C(F)(F)F)C1 (racemic) [Example 296, 5-(8-((2S,2S)-2-(3-(3-(trifluoromethyl)azetidine-1-carbonyl)phenyl)cyclopropyl)imidazo[1,2-b]pyridazin-6-yl)pyrimidine-2,4(1H,3H)-dione] | 4.38
O=c1[nH]cc(-c2cc([C@H]3C[C@@H]3c3cnn(C(F)F)c3)c3ncc(F)n3n2)c(=O)[nH]1 (single isomer, unassigned) [Example 371] | 17.9
O=c1[nH]cc(-c2cc([C@H]3C[C@@H]3c3ccc4c(F)nn(CC(F)(F)F)c4c3)c3nccn3n2)c(=O)[nH]1 (racemic) [Example 117, 5-(8-((2S,2S)-2-(3-fluoro-1-(2,2,2-trifluoroethyl)-1H-indazol-6-yl)cyclopropyl)imidazo[1,2-b]pyridazin-6-yl)pyrimidine-2,4(1H,3H)-dione] | 0.14
O=C1N(CC(F)(F)F)c2cc([C@H]3C[C@@H]3c3cc(-c4c[nH]c(=O)[nH]c4=O)nn4ccnc34)ccc2C12CC2 (single isomer, unassigned) [Example 391] | 0.1
O=c1[nH]cc(-c2cc([C@H]3C[C@@H]3c3cncnc3)c3ncc(F)n3n2)c(=O)[nH]1 (racemic) [Example 179, 5-(3-fluoro-8-((1S,2S)-2-(pyrimidin-5-yl)cyclopropyl)imidazo[1,2-b]pyridazin-6-yl)pyrimidine-2,4(1H,3H)-dione] | 60.5
CCOC(=O)c1cn2nc(-c3c[nH]c(=O)[nH]c3=O)cc([C@H]3C[C@@H]3c3ccc(F)cc3)c2n1 (racemic) [Example 172, ethyl 6-(2,4-dioxo-1,2,3,4-tetrahydropyrimidin-5-yl)-8-((1S,2S)-2-(4-fluorophenyl)cyclopropyl)imidazo[1,2-b]pyridazine-2-carboxylate] | 65.1
O=C(c1ccc([C@H]2C[C@@H]2c2cc(-c3c[nH]c(=O)[nH]c3=O)nn3ccnc23)cc1)N1C[C@@H](F)[C@H](F)C1 (racemic) [Example 299] | 24.5
